These results are taken from patent US10100056B2, “SHIP1 modulators and methods related thereto” (Aquinox Pharmaceuticals (Canada) Inc., priority 2013, dated 2018).

The target of one assay is T1, His-hSHIP1 enzyme (Homo sapiens, UniProt Q92835).
T1 construct: His
T1 sequence (Q92835 1-1189): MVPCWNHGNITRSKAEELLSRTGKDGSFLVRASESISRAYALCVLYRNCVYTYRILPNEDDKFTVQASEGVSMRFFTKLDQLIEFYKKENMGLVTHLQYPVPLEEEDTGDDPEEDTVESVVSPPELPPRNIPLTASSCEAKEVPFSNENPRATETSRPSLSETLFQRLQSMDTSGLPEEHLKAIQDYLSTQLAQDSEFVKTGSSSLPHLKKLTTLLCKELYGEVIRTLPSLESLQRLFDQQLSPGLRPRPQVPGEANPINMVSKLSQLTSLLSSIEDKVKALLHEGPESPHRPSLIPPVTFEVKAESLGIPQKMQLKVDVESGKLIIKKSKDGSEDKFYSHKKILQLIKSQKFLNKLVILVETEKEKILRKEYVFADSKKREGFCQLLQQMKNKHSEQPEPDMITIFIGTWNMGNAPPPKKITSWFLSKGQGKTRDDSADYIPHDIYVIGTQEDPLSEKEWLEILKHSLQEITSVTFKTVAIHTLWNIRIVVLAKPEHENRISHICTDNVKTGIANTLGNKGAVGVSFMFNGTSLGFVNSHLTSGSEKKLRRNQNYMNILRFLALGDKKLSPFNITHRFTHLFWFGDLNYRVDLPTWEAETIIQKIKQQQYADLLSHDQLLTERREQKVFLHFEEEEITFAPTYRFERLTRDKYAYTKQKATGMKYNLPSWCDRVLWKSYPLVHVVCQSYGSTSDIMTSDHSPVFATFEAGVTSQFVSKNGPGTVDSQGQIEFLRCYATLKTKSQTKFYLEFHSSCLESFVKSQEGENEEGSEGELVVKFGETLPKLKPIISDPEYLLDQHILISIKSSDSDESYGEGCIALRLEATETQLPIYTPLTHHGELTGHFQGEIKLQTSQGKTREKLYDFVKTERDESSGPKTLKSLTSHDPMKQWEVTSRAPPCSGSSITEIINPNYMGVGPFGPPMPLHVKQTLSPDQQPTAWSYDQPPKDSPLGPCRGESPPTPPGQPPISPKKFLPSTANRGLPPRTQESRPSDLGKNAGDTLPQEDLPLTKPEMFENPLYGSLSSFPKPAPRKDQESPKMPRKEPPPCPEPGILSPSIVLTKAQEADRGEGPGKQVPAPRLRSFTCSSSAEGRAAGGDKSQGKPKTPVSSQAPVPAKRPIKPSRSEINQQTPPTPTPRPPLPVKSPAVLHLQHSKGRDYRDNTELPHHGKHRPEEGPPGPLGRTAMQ
The experiment in a line: His-hSHIP1 activity (phosphatase assay, IP4 substrate, Biomol Green). The class given is biochemical. Further details: key to Scoring, Approach 2 (Initial velocity Ratio): +++: higher than reference or reference - 15%; ++: reference - 16% to reference - 30%; +: reference - 31% or lower; −: inhibitor. The conditions noted are these: second approach: ratio of initial velocities IP4 25/250 μM compared with reference compound; values without asterisk. The protocol:
Test compounds are dissolved in 95% ethanol to form stock solutions. Before screening, the stock solutions are diluted with Phosphatase Assay Buffer (20 mM Tris-HCL, 10 mM MgCl2 pH 7.5, 0.02% Tween 20) to form working assay solutions that contain 10% ethanol. The assay is carried out on 96-well microtiter plates using a modified procedure of that reported by Ong et al., Blood 110, 1942-1949, 2007 and Yang et al., Org Lett 7, 1073-1076, 2005, both of which references are incorporated herein by reference in their entirety.
Data were generated by one of two variant methods. Test compounds are screened by one of two approaches described as follows. In the first approach, each reaction contains 5 μL of His-hSHIP1 enzyme (5-20 ng), 10 μL of the substrate, 1,3,4,5-inositol tetrakisphosphate (IP4; 50 μM final), 5 μL of Phosphatase Assay Buffer, and 5 µL of test compound at various concentrations in 10% ethanol (0-300 μM final). Control blanks are also prepared by replacing His-hSHIP1 enzyme, IP4, or test compounds with Phosphatase Assay Buffer. After adding the reaction components in a 96-well microtiter plate on ice, the reaction is mixed by briefly shaking the plate vigorously. The reaction is then incubated at 37° C. for 15 min with gentle shaking followed by addition of 100 μL of Biomol Green Reagent (BIOMOL, PA, USA) to terminate the reaction. The free phosphate released from IP4 by His-hSHIP1 binds to the Biomol Green Reagent, which turns the dye to green color. After incubating the mixture for 20 min at room temperature for color development, the absorbance is read with SpectraMax Plus 96-well plate reader (Molecular Devices, Sunnyvale, Calif., USA) at a wavelength of 650 nm.
In the second approach, a master mix is prepared that contains 50 μL of His-hSHIP1 enzyme (0.4-1.6 ng/μL final), 25 μL of the substrate, IP4 (25 or 250 μM final), and 50 μL of test compound in 3.3% ethanol (100 μL final). Control blanks are also prepared by replacing His-hSHIP1 enzyme, IP4, or test compounds with Phosphate Assay Buffer. […] Each reaction component is preincubated at 37° C. for 30 min before adding to a 96-well microtiter plate. The master mix is then incubated at 37° C. At time 0, 20, and 30 min, 25 μL of the master mix is removed and transferred to a new 96-well microtiter plate, to which 100 μL of Biomol Green Reagent is added to stop the reaction. After incubating the mixture for 20 min at room temperature for color development, the absorbance is read with SpectraMax Plus 96-well plate reader at a wavelength of 650 nm. Phosphate released is plotted against time to calculate the initial velocities (i.e., slope of the graph) at each IP4 concentration. The initial velocities are baseline corrected and the ratio of initial velocities (IP425/IP4250) is calculated and used to rate the test compounds.
`CC1(C)CCC2=C1CC[C@H]([C@@]1(C)CC[C@H](O)C[C@@H]1CO)[C@H]2CNCC1CC1` [Cpd. No. 2, (1S,3S,4R)-4-((4R,5S)-4-((cyclopropylmethylamino)methyl)-1,1-dimethyl-2,3,4,5,6,7-hexahydro-1H-inden-5-yl)-3-(hydroxymethyl)-4-methylcyclohexanol]: the “Scoring, Approach 2 (Initial velocity Ratio)” value was “+”.

As to `CC(=O)NC[C@H]1C2=C(CC[C@@H]1[C@@]1(C)CC[C@H](O)C[C@@H]1CO)C(C)(C)CC2` [Cpd. No. 4, N-(((4R,5S)-5-((1R,2S,4S)-4-hydroxy-2-(hydroxymethyl)-1-methylcyclohexyl)-1,1-dimethyl-2,3,4,5,6,7-hexahydro-1H-inden-4-yl)methyl)acetamide], the “Scoring, Approach 2 (Initial velocity Ratio)” value is on record as “+”.

As to `CNC[C@H]1C2=C(CC[C@@H]1[C@@]1(C)CC[C@H](O)C[C@@H]1CO)C(C)(C)CC2` [Cpd. No. 5, (1S,3S,4R)-4-((4R,5S)-1,1-dimethyl-4-((methylamino)methyl)-2,3,4,5,6,7-hexahydro-1H-inden-5-yl)-3-(hydroxymethyl)-4-methylcyclohexanol], the “Scoring, Approach 2 (Initial velocity Ratio)” value is on record as “+++”.

As for `CC1(C)CCC2=C1CC[C@H]([C@@]1(C)CC[C@H](O)C[C@@H]1CO)[C@H]2CNS(C)(=O)=O` [Cpd. No. 7, N-(((4R,5S)-5-((1R,2S,4S)-4-hydroxy-2-(hydroxymethyl)-1-methylcyclohexyl)-1,1-dimethyl-2,3,4,5,6,7-hexahydro-1H-inden-4-yl)methyl)methanesulfonamide], the “Scoring, Approach 2 (Initial velocity Ratio)” value is “+”.

Regarding `CC1(C)CCC2=C1CC[C@H]([C@@]1(C)CC[C@H](O)C[C@@H]1CO)[C@H]2CNC(=O)c1ccccc1` [Cpd. No. 8, N-(((4R,5S)-5-((1R,2S,4S)-4-hydroxy-2-(hydroxymethyl)-1-methylcyclohexyl)-1,1-dimethyl-2,3,4,5,6,7-hexahydro-1H-inden-4-yl)methyl)benzamide], the “Scoring, Approach 2 (Initial velocity Ratio)” value is listed as “+”.

As for `C=C1CC[C@H]2[C@H](CNCc3ccc(F)cc3)[C@@H]([C@@]3(C)CC[C@H](O)C[C@@H]3CO)CC[C@]12C` [Cpd. No. 10, (1S,3S,4R)-4-((3aS,4R,5S,7aS)-4-((4-fluorobenzylamino)methyl)-7a-methyl-1-methyleneoctahydro-1H-inden-5-yl)-3-(hydroxymethyl)-4-methylcyclohexanol], the “Scoring, Approach 2 (Initial velocity Ratio)” value is reported as “−”.

The test system of another assay is Akt phosphorylation in Molt-4 (PTEN-/SHIP1+) cells. Put plainly: Akt phosphorylation in lymphocytes (Western blot, IGF-1 stimulated). It counts as cell-based. On the set-up: key: +: inhibits Akt phosphorylation at 30 μM; −: no effect on Akt phosphorylation at 30 μM. The conditions noted are these: 30 μM; Molt-4 (SHIP1+) cells, IGF-1 100 ng/mL. On the procedure: Molt-4 (PTEN-/SHIP1+) cells are starved in serum free RPMI for overnight. In a 15 mL conical tube, 2-3 million serum starved cells (1 million cells per mL) are treated with various concentrations of test compound ([…]) for 30 min at 37° C. followed by stimulation with 100 ng/mL of IGF-1 for 1 hour at 37° C. After stimulation, cells are washed once with ice-cold DPBS and lysed with Lysis Buffer (20 mM Tris-HCl, pH 7.5, 140 mM NaCl, 1% NP-40, Complete Mini Protease Inhibitor Cocktail, 10 mM NaF, 1 mM Na3VO4, 1 mM β-glycerolphosphate) on ice for 30 min with vortexing every 10 min. Samples are then centrifuged at 13,000 rpm for 20 min, and supernatants are collected as total cell lysate samples. Protein concentration is determined using bicinchonic acid assay, and about 15 μg of total protein from each sample is loaded and separated on a 4-12% Tris-Glycine gel. After SDS-PAGE, proteins are transferred from the gel to a nitrocellulose membrane. The membrane is blocked in 5% BSA in PBS containing 0.1% Tween-20 (PBS-T) for 1 hour at room temperature before probing with primary antibodies for overnight at 4° C. The following antibodies are used: mouse anti-SHIP1 (1:500 dilution; Santa Cruz, Calif., USA), rabbit anti-phospho-Akt (Ser473) (1:1000 dilution; Cell Signaling Technologies, MA, USA), rabbit anti-Akt (1:1000; Cell Signaling Technologies, MA, USA), and rabbit anti-actin (1:2000; Cell Signaling Technologies, MA, USA). The membrane is then incubated with goat anti-rabbit or anti-mouse secondary antibodies (1:3000) for 1 hour at room temperature. Target proteins on the membrane are detected with ECL solution and exposed on a film.
(In general: In western blotting, separated proteins are transferred to a membrane and probed.)
On to `C=C1CC[C@H]2[C@H](CNC#N)[C@@H]([C@@]3(C)CC[C@H](O)C[C@@H]3CO)CC[C@]12C` [Cpd. No. 89, N-(((3aS,4R,5S,7aS)-5-((1R,2S,4S)-4-hydroxy-2-(hydroxymethyl)-1-methylcyclohexyl)-7a-methyl-1-methyleneoctahydro-1H-inden-4-yl)methyl)cyanamide], for which the “Molt-4 (SHIP+): inhibition of Akt phosphorylation” value (from here on “Molt-4 (SHIP+): inhibition”) was “+”.

Take `C=C1CC[C@H]2[C@H](CC(N)=O)[C@@H]([C@@]3(C)CC[C@H](O)C[C@@H]3CO)CC[C@]12C` [Cpd. No. 90, 2-((3aS,4R,5S,7aS)-5-((1R,2S,4S)-4-hydroxy-2-(hydroxymethyl)-1-methylcyclohexyl)-7a-methyl-1-methyleneoctahydro-1H-inden-4-yl)acetamide]: the “Molt-4 (SHIP+): inhibition” value is “+”.

Turning to `C=C1CC[C@H]2[C@H](O)[C@@H]([C@@]3(C)CC[C@H](O)C[C@@H]3CCC#N)CC[C@]12C` [Cpd. No. 94, 3-((1S,2S,5S)-5-hydroxy-2-((3aR,4R,5R,7aS)-4-hydroxy-7a-methyl-1-methyleneoctahydro-1H-inden-5-yl)-2-methylcyclohexyl)propanenitrile], the “Molt-4 (SHIP+): inhibition” value was “+”.

Turning to `C=C1CC[C@H]2[C@H](O)[C@@H]([C@@]3(C)CC[C@H](O)C[C@@H]3CCC(N)=O)CC[C@]12C` [Cpd. No. 95, 3-((1S,2S,5S)-5-hydroxy-2-((3aR,4R,5R,7aS)-4-hydroxy-7a-methyl-1-methyleneoctahydro-1H-inden-5-yl)-2-methylcyclohexyl)propanamide], the “Molt-4 (SHIP+): inhibition” value is “+”.

Turning to `C=C1CC[C@H]2[C@H](O)[C@@H]([C@@]3(C)CC[C@H](O)C[C@H]3CCC(=O)O)CC[C@]12C` [Cpd. No. 97, 3-((1R,2S,5S)-5-hydroxy-2-((3aR,4R,5R,7aS)-4-hydroxy-7a-methyl-1-methyleneoctahydro-1H-inden-5-yl)-2-methylcyclohexyl)propanoic acid], the “Molt-4 (SHIP+): inhibition” value is “+”.

On to `C=C1CC[C@H]2[C@H](C(=O)O)[C@@H]([C@@]3(C)CC[C@H](O)C[C@H]3CO)CC[C@]12C` [Cpd. No. 98, (3aS,4R,5S,7aS)-5-((1R,2R,4S)-4-hydroxy-2-(hydroxymethyl)-1-methylcyclohexyl)-7a-methyl-1-methyleneoctahydro-1H-indene-4-carboxylic acid], for which the “Molt-4 (SHIP+): inhibition” value is “+”.
